Values after ≈ are worked out from the molar mass of the structure shown.
Legend:
Format in all cases: cell-based, Mycobacterium tuberculosis
[1] = system: M. tuberculosis H37Rv; experiment: DST of MTB using the DAC system (MIC from time-lapse images); details: for MIC: Mycobacterium tuberculosis, 120 h, images over 5 days; for susceptibility of the strain (in words): from the MIC data
[2] = system: standard strain H37Rv; experiment: Inoculum effect test, DST on the DAC system
[3] = system: XDR-TB clinical strain; experiment: DST of MTB using the DAC system (MIC from time-lapse images); details: for susceptibility determined from the MIC data and the critical concentrations: DAC system, XDR strain; for MIC: Mycobacterium tuberculosis, 120 h
[4] = system: clinical strain KHS; experiment: Inoculum effect on clinical strains on the DAC system
Method: (§1) Mycobacterium tuberculosis identified by ZN staining and grown from an L-J slope or MGIT tube and was subjected to DST. For the preparation of inoculation from the LJ culture, colonies up to 14 days were extracted from the grown culture. The colonies were shaken with glass beads to crush large lumps. To obtain a high density (˜5×10^9 CFU/ml), the suspension was centrifuged at 3000 g for 10 min and pellets were resuspended in sterile PBS. Subsequently, the suspension was added to liquid agarose, inoculated in a bacteria-agarose mixture within the range of 10^1 to 5×10^8 CFU/ml, and loaded in the main channel After solidification, 7H9 broth containing each antibiotic was applied to the chamber. All bacterial cells were imaged with an inverted optical microscope (IS71, Olympus).
(§2) Clinical strains express various phenotypes, particularly, in drug susceptibility. […] Rifampicin, isoniazid, streptomycin, and ethambutol were used as test drugs. For the 131 strains, the highest concentration was 1.3×10^9.

[5] = system: clinical strain MSH; experiment: as above
Method: as §1, §2

[6] = system: clinical strain 1088; experiment: as above
Method: as §1, §2

[7] = system: clinical strain CYD; experiment: as above
Method: as §1, §2

[8] = system: clinical strain CMS; experiment: as above
Method: as §1, §2

[9] = system: clinical strain 131; experiment: as above
Method: as §1, §2

[10] = system: MDR-TB clinical strain; experiment: DST of MTB using the DAC system (MIC from time-lapse images); details: for susceptibility determined from the MIC data and the critical concentrations: DAC system, MDR strain; for MIC: Mycobacterium tuberculosis, 120 h
[11] = inoculum 10^3/mL, DAC, unit inferred
[12] = inoculum 10^4/mL, DAC, unit inferred
[13] = inoculum 10^5/mL, DAC, unit inferred
[14] = inoculum 10^6/mL, MAC2, unit inferred
[15] = inoculum 10^7/mL, MAC2, unit inferred

SMILES | susceptibility determined from the MIC data and the critical concentrations [1] | MIC [1] [µg/mL] | MIC (DAC) [2, 11] [µg/mL] | MIC (DAC) [2, 12] [µg/mL] | MIC (DAC) [2, 13] [µg/mL] | MIC (DAC) [2, 14] [µg/mL] | MIC (DAC) [2, 15] [µg/mL] | susceptibility determined from the MIC data and the critical concentrations [3] | MIC [3] [µg/mL] | MIC (DAC) [4, 12] [µg/mL] | MIC (DAC) [4, 13] [µg/mL] | MIC (DAC) [4, 14] [µg/mL] | MIC (DAC) [4, 15] [µg/mL] | MIC (DAC) [5, 12] [µg/mL] | MIC (DAC) [5, 13] [µg/mL] | MIC (DAC) [5, 14] [µg/mL] | MIC (DAC) [5, 15] [µg/mL] | MIC (DAC) [6, 11] [µg/mL] | MIC (DAC) [6, 12] [µg/mL] | MIC (DAC) [6, 13] [µg/mL] | also measured
CO[C@H]1/C=C/O[C@@]2(C)Oc3c(C)c(O)c4c(O)c(c(/C=N/N5CCN(C)CC5)c(O)c4c3C2=O)NC(=O)/C(C)=C\C=C\[C@H](C)[C@H](O)[C@@H](C)[C@@H](O)[C@@H](C)[C@H](OC(C)=O)[C@@H]1C [RFP, rifampicin] | S | 0.25 (≈ 0.304 µM) | 0.5 (≈ 0.608 µM) | 0.5 (≈ 0.608 µM) | 0.5 (≈ 0.608 µM) | 0.5 (≈ 0.608 µM) | 0.5 (≈ 0.608 µM) | R | > 2 | 0.25 (≈ 0.304 µM) | 0.25 (≈ 0.304 µM) | 0.25 (≈ 0.304 µM) | 0.5 (≈ 0.608 µM) | 0.25 (≈ 0.304 µM) | 0.25 (≈ 0.304 µM) | 0.25 (≈ 0.304 µM) | 0.5 (≈ 0.608 µM) | ≥ 2 | ≥ 2 | ≥ 2 | MIC (DAC) [6, 14]: ≥ 2 µg/mL; MIC (DAC) [6, 15]: ≥ 2 µg/mL; MIC (DAC) [7, 12]: 0.25 µg/mL (≈ 0.304 µM); MIC (DAC) [7, 13]: 0.25 µg/mL (≈ 0.304 µM); MIC (DAC) [7, 14]: 0.25 µg/mL (≈ 0.304 µM); MIC (DAC) [7, 15]: 0.5 µg/mL (≈ 0.608 µM); MIC (DAC) [8, 12]: 0.25 µg/mL (≈ 0.304 µM); MIC (DAC) [8, 13]: 0.25 µg/mL (≈ 0.304 µM); MIC (DAC) [8, 14]: 0.5 µg/mL (≈ 0.608 µM); MIC (DAC) [8, 15]: 0.5 µg/mL (≈ 0.608 µM); MIC (DAC) [9, 11]: > 2 µg/mL; MIC (DAC) [9, 12]: > 2 µg/mL; MIC (DAC) [9, 13]: > 2 µg/mL; MIC (DAC) [9, 14]: > 2 µg/mL; MIC (DAC) [9, 15]: > 2 µg/mL; susceptibility determined from the MIC data and the critical concentrations [10]: R; MIC [10]: > 2 µg/mL
[H]/N=C(/N)N[C@H]1[C@H](O)[C@@H](O)[C@H](O[C@@H]2O[C@@H](C)[C@](O)(C=O)[C@H]2O[C@@H]2O[C@@H](CO)[C@H](O)[C@@H](O)[C@@H]2NC)[C@@H](N/C(N)=N\[H])[C@@H]1O [SM, streptomycin] | R | 2 (≈ 3.44 µM) | 2 (≈ 3.44 µM) | 2 (≈ 3.44 µM) | 2 (≈ 3.44 µM) | 2 (≈ 3.44 µM) | > 2 | R | > 4 | 0.5 (≈ 0.86 µM) | 0.25 (≈ 0.43 µM) | 0.5 (≈ 0.86 µM) | 1 (≈ 1.72 µM) | 0.25 (≈ 0.43 µM) | 0.25 (≈ 0.43 µM) | 1 (≈ 1.72 µM) | 0.5 (≈ 0.86 µM) | ≥ 4 | ≥ 4 | ≥ 4 | susceptibility of the strain (in words) [1]: sensitive; MIC (DAC) [6, 14]: ≥ 4 µg/mL; MIC (DAC) [6, 15]: ≥ 4 µg/mL; MIC (DAC) [7, 12]: 0.5 µg/mL (≈ 0.86 µM); MIC (DAC) [7, 13]: 0.25 µg/mL (≈ 0.43 µM); MIC (DAC) [7, 14]: 0.5 µg/mL (≈ 0.86 µM); MIC (DAC) [7, 15]: 1 µg/mL (≈ 1.72 µM); MIC (DAC) [8, 12]: 0.5 µg/mL (≈ 0.86 µM); MIC (DAC) [8, 13]: 0.5 µg/mL (≈ 0.86 µM); MIC (DAC) [8, 14]: 1 µg/mL (≈ 1.72 µM); MIC (DAC) [8, 15]: 1 µg/mL (≈ 1.72 µM); MIC (DAC) [9, 11]: > 4 µg/mL; MIC (DAC) [9, 12]: > 4 µg/mL; MIC (DAC) [9, 13]: > 4 µg/mL; MIC (DAC) [9, 14]: > 4 µg/mL; MIC (DAC) [9, 15]: > 4 µg/mL; susceptibility determined from the MIC data and the critical concentrations [10]: R; MIC [10]: > 4 µg/mL
CC[C@@H](CO)NCCN[C@@H](CC)CO [EMB, ethambutol] | S | 5 (≈ 24.5 µM) | 2.5 (≈ 12.2 µM) | 1.25 (≈ 6.12 µM) | 1.25 (≈ 6.12 µM) | 2.5 (≈ 12.2 µM) | 2.5 (≈ 12.2 µM) | R | 10 (≈ 48.9 µM) | 2.5 (≈ 12.2 µM) | 1.25 (≈ 6.12 µM) | 2.5 (≈ 12.2 µM) | 2.5 (≈ 12.2 µM) | 1.25 (≈ 6.12 µM) | 2.5 (≈ 12.2 µM) | 2.5 (≈ 12.2 µM) | 1.25 (≈ 6.12 µM) | 10 (≈ 48.9 µM) | 10 (≈ 48.9 µM) | 10 (≈ 48.9 µM) | susceptibility of the strain (in words) [1]: sensitive; MIC (DAC) [6, 14]: ≥ 10 µg/mL; MIC (DAC) [6, 15]: ≥ 10 µg/mL; MIC (DAC) [7, 12]: 2.5 µg/mL (≈ 12.2 µM); MIC (DAC) [7, 13]: 2.5 µg/mL (≈ 12.2 µM); MIC (DAC) [7, 14]: 2.5 µg/mL (≈ 12.2 µM); MIC (DAC) [7, 15]: 5 µg/mL (≈ 24.5 µM); MIC (DAC) [8, 12]: 1.25 µg/mL (≈ 6.12 µM); MIC (DAC) [8, 13]: 1.25 µg/mL (≈ 6.12 µM); MIC (DAC) [8, 14]: 2.5 µg/mL (≈ 12.2 µM); MIC (DAC) [8, 15]: 2.5 µg/mL (≈ 12.2 µM); MIC (DAC) [9, 11]: > 10 µg/mL; MIC (DAC) [9, 12]: > 10 µg/mL; MIC (DAC) [9, 13]: > 10 µg/mL; MIC (DAC) [9, 14]: > 10 µg/mL; MIC (DAC) [9, 15]: > 10 µg/mL; susceptibility determined from the MIC data and the critical concentrations [10]: R; MIC [10]: > 10 µg/mL
NNC(=O)c1ccncc1 [INH, isoniazid] | S | 0.05 (≈ 0.365 µM) | 0.05 (≈ 0.365 µM) | 0.05 (≈ 0.365 µM) | 0.05 (≈ 0.365 µM) | 0.05 (≈ 0.365 µM) | 0.05 (≈ 0.365 µM) | R | > 0.2 | 0.05 (≈ 0.365 µM) | 0.025 (≈ 0.182 µM) | 0.025 (≈ 0.182 µM) | 0.025 (≈ 0.182 µM) | 0.025 (≈ 0.182 µM) | 0.025 (≈ 0.182 µM) | 0.025 (≈ 0.182 µM) | 0.025 (≈ 0.182 µM) | ≥ 0.2 | 0.2 (≈ 1.46 µM) | 0.2 (≈ 1.46 µM) | susceptibility of the strain (in words) [1]: sensitive; MIC (DAC) [6, 14]: ≥ 0.2 µg/mL; MIC (DAC) [6, 15]: ≥ 0.2 µg/mL; MIC (DAC) [7, 12]: 0.05 µg/mL (≈ 0.365 µM); MIC (DAC) [7, 13]: 0.025 µg/mL (≈ 0.182 µM); MIC (DAC) [7, 14]: 0.025 µg/mL (≈ 0.182 µM); MIC (DAC) [7, 15]: 0.025 µg/mL (≈ 0.182 µM); MIC (DAC) [8, 12]: 0.05 µg/mL (≈ 0.365 µM); MIC (DAC) [8, 13]: 0.025 µg/mL (≈ 0.182 µM); MIC (DAC) [8, 14]: 0.025 µg/mL (≈ 0.182 µM); MIC (DAC) [8, 15]: 0.05 µg/mL (≈ 0.365 µM); MIC (DAC) [9, 11]: 0.2 µg/mL (≈ 1.46 µM); MIC (DAC) [9, 12]: > 0.2 µg/mL; MIC (DAC) [9, 13]: > 0.2 µg/mL; MIC (DAC) [9, 14]: > 0.2 µg/mL; MIC (DAC) [9, 15]: > 0.2 µg/mL; susceptibility determined from the MIC data and the critical concentrations [10]: R; MIC [10]: > 0.2 µg/mL
